Results: ChEMBL document CHEMBL4765450, “The components and activities analysis of a novel anticoagulant candidate dHG-5” (Eur J Med Chem, 2020)
Activity calls are given as the source filed them. No cut-off for these calls is given here.

Key:
[1] = biological target: Coagulation factor XI (Homo sapiens) (UniProt P03951); test: Inhibition of factor 11a (unknown origin) at IC50 using S-2366 as substrate preincubated for 1 min followed by chromogenic substrate addition and measured for 2 mins; conditions: time 3.0 min
[2] = biological target: T1, Coagulation factor VII (Homo sapiens) (UniProt P08709); test: Inhibition of factor 7a (unknown origin) at IC50 using pefachrome factor VIIa as substrate preincubated for 1 min followed by chromogenic substrate addition and measured for 2 mins; conditions: time 3.0 min
T1 sequence (whole entry): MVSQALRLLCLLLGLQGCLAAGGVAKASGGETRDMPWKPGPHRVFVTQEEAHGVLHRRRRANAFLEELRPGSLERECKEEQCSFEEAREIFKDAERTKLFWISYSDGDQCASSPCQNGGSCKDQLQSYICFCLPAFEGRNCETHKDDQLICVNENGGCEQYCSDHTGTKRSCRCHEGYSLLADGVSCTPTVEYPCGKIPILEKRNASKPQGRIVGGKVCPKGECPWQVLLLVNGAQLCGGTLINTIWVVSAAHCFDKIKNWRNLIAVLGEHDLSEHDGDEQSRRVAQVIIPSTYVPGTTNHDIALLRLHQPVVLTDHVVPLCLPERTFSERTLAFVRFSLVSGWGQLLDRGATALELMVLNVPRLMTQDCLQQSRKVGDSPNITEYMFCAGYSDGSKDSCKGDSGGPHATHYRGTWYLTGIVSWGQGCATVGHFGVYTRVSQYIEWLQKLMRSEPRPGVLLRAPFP

[3] = biological target: Prothrombin (Homo sapiens) (UniProt P00734); test: Inhibition of factor 2a (unknown origin) at IC50 preincubated for 1 min followed by chromogenic substrate addition and measured for 2 mins; conditions: time 3.0 min
[4] = biological target: T2, Coagulation factor XII (Homo sapiens) (UniProt P00748); test: Inhibition of factor 12a (unknown origin) at IC50 using kallikrein chromogenic substrate preincubated for 1 min followed by chromogenic substrate addition and measured for 2 mins in presence of AT-III; conditions: time 3.0 min
T2 sequence (whole entry): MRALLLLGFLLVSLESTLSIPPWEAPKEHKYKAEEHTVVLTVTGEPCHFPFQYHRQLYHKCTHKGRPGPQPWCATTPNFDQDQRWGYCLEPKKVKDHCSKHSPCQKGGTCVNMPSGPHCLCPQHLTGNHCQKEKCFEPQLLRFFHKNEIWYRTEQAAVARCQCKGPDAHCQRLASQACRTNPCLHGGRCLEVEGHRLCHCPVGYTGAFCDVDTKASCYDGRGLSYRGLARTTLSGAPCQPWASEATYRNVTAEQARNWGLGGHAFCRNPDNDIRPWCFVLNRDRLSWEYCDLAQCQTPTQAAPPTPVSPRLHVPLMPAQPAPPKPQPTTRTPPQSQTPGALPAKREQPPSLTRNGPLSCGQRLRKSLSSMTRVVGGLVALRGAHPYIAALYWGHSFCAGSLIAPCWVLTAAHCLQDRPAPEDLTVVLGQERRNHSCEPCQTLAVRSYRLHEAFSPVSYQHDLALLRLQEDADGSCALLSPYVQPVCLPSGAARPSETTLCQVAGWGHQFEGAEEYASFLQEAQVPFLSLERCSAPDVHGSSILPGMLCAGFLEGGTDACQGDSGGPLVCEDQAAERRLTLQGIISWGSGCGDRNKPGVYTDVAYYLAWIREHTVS

[5] = test system: Plasma; test: Induction of platelet aggregation in human platelet rich plasma at plasma peak concentration of 10 times anti-thrombosis ED50 measured after 10 mins by light transmission aggregometry
[6] = test system: Plasma; test: Anticoagulation activity in AT-III-deficient human plasma preincubated for 2 mins followed by APTT reagent and measured after 3 mins by coagulometric method; format: functional, cell-free; conditions: time 5.0 min
[7] = biological target: T3, Coagulation factor IX/VIII (Homo sapiens) (UniProt P00740+P00451); test: (§1) Inhibition of human citrated plasma iXase (factor 8a-factor 9a complex) preincubated for 2 mins followed by factor 10 addition and measured after 1 min by FXa chromogenic substrate SXa-11 based assay relative to dHG-5; format: protein-complex assay; conditions: time 3.0 min
[8] = biological target: T3, Coagulation factor IX/VIII (Homo sapiens); test: as §1, with “complex) assessed as activity potency of oligosaccharides multiplied by the percentage of oligosaccharides in dHG-5” for “complex)”; format: protein-complex assay; conditions: time 3.0 min
[9] = biological target: Coagulation factor XI (Homo sapiens) (UniProt P03951); test: Inhibition of factor 11a (unknown origin) at IC90 using S-2366 as substrate preincubated for 1 min followed by chromogenic substrate addition and measured for 2 mins in presence of AT-III; conditions: time 3.0 min
[10] = biological target: T2, Coagulation factor XII (Homo sapiens); test: Inhibition of factor 12a (unknown origin) at IC50 using kallikrein chromogenic substrate preincubated for 1 min followed by chromogenic substrate addition and measured for 2 mins; conditions: time 3.0 min
[11] = test system: Plasma; test: (§2) Anticoagulation activity in human plasma assessed as drug level causing 20 times doubling of APTT preincubated for 2 mins followed by APTT reagent and measured after 3 mins by coagulometric method relative to dHG-5; format: functional; conditions: time 5 min
[12] = biological target: Coagulation factor X (Homo sapiens) (UniProt P00742); test: Inhibition of factor 10a (unknown origin) at IC50 preincubated for 1 min followed by chromogenic substrate addition and measured for 2 mins; conditions: time 3.0 min
[13] = biological target: T4, Coagulation factor IX (Homo sapiens, UniProt P00740); test: Inhibition of factor 9a (unknown origin) binding to immobilized biotinylated oHG-11 by biolayer interferometry relative to dHG-5
[14] = test system: Plasma; test: Anticoagulation activity in HCII-deficient human plasma preincubated for 2 mins followed by APTT reagent and measured after 3 mins by coagulometric method; format: functional, cell-free; conditions: time 5.0 min
[15] = biological target: Prothrombin (Homo sapiens) (UniProt P00734); test: Inhibition of factor 2a (unknown origin) at IC90 preincubated for 1 min followed by chromogenic substrate addition and measured for 2 mins in presence of AT-III; conditions: time 3.0 min
[16] = biological target: T1, Coagulation factor VII (Homo sapiens); test: Inhibition of factor 7a (unknown origin) at IC50 using pefachrome factor VIIa as substrate preincubated for 1 min followed by chromogenic substrate addition and measured for 2 mins in presence of AT-III; conditions: time 3.0 min
[17] = biological target: Coagulation factor X (Homo sapiens) (UniProt P00742); test: Inhibition of factor 10a (unknown origin) at IC50 preincubated for 1 min followed by chromogenic substrate addition and measured for 2 mins in presence of AT-III; conditions: time 3.0 min
[18] = biological target: T4, Coagulation factor IX; test: Inhibition of factor 9a (unknown origin) binding to immobilized biotinylated oHG-11 assessed as activity potency of oligosaccharides multiplied by the percentage of oligosaccharides in dHG-5 by biolayer interferometry relative to dHG-5
[19] = test system: Plasma; test: as §2, with “of APTT by measuring activity potency of oligosaccharides multiplied by the percentage of oligosaccharides in dHG-5 preincubated for” for “of APTT preincubated for”; format: functional; conditions: time 5 min
[20] = test system: Plasma; test: Induction of platelet aggregation in rat wash platelet at plasma peak concentration of 10 times anti-thrombosis ED50 measured after 10 mins by light transmission aggregometry
[21] = biological target: Coagulation factor X (Homo sapiens) (UniProt P00742); test: Inhibition of factor 10a (unknown origin) at IC90 preincubated for 1 min followed by chromogenic substrate addition and measured for 2 mins in presence of AT-III relative to control; conditions: time 3.0 min
[22] = biological target: Coagulation factor XI (Homo sapiens) (UniProt P03951); test: Inhibition of factor 11a (unknown origin) at IC50 using S-2366 as substrate preincubated for 1 min followed by chromogenic substrate addition and measured for 2 mins in presence of AT-III; conditions: time 3.0 min
[23] = test system: Rattus norvegicus; test: Antithrombotic activity in thromboplastin and stasis-induced Sprague-Dawley rat deep venous thrombosis model assessed as reduction in venous thrombosis by measuring activity potency of oligosaccharides multiplied by the percentage of oligosaccharides in dHG-5 at 1.52 mg/kg, sc administered 1 hr prior to thromboplastin addition for 20 secs followed by establishment of stasis for 20 mins relative …; format: functional; conditions: time 80.33 min, 1.339 h
[24] = test system: Rattus norvegicus; test: Antithrombotic activity in thromboplastin and stasis-induced Sprague-Dawley rat deep venous thrombosis model assessed as reduction in venous thrombosis at 1.52 mg/kg, sc administered 1 hr prior to thromboplastin addition for 20 secs followed by establishment of stasis for 20 mins relative to dHG-5; format: functional; conditions: time 80.33 min, 1.339 h
[25] = test system: Rattus norvegicus; test: Antithrombotic activity in thromboplastin and stasis-induced Sprague-Dawley rat deep venous thrombosis model assessed as reduction in venous thrombosis at 1.52 mg/kg, sc administered 1 hr prior to thromboplastin addition for 20 secs followed by establishment of stasis for 20 mins; format: functional; conditions: 1.339 h, time 80.33 min
[26] = biological target: Prothrombin (Homo sapiens) (UniProt P00734); test: Inhibition of factor 2a (unknown origin) at IC50 preincubated for 1 min followed by chromogenic substrate addition and measured for 2 mins in presence of AT-III; conditions: time 3.0 min

Chain of Coagulation factor X (Homo sapiens) (P00742 41-179 limits assumed): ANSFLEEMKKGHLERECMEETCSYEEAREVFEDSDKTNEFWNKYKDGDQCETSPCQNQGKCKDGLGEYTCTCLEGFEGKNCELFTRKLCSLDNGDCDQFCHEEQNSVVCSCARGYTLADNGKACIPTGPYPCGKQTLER
Chain of Coagulation factor X (Homo sapiens) (P00742 235-488 limits assumed): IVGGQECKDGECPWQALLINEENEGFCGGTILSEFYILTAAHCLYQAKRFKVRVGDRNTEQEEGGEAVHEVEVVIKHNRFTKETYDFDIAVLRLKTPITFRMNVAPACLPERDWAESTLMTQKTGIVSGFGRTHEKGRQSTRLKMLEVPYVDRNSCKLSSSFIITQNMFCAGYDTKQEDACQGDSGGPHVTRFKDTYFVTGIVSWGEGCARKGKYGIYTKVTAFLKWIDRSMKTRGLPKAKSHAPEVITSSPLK
Chain of Coagulation factor XI (Homo sapiens) (P03951 19-387 limits assumed): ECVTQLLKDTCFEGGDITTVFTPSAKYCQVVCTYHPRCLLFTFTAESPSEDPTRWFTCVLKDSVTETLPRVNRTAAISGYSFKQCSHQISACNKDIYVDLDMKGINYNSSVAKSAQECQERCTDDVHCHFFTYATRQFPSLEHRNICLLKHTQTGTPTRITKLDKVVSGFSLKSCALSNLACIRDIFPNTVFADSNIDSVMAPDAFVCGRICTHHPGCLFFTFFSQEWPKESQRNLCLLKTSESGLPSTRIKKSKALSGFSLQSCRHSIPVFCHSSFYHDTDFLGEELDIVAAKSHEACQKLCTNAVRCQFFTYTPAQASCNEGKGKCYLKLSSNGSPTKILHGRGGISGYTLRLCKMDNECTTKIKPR
Chain of Coagulation factor XI (Homo sapiens) (P03951 388-625 limits assumed): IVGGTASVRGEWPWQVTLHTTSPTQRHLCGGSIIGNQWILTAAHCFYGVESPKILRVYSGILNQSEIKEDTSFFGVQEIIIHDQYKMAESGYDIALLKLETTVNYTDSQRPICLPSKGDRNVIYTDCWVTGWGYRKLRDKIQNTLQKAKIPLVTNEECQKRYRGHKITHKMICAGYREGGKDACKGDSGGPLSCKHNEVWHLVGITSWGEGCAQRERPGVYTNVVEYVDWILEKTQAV
T4 sequence (P00740 47-191 limits assumed): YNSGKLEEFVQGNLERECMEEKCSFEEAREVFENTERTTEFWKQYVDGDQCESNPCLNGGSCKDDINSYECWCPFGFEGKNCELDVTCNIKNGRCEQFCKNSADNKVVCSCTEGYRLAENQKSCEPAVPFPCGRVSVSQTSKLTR
T4 sequence (P00740 227-461 limits assumed): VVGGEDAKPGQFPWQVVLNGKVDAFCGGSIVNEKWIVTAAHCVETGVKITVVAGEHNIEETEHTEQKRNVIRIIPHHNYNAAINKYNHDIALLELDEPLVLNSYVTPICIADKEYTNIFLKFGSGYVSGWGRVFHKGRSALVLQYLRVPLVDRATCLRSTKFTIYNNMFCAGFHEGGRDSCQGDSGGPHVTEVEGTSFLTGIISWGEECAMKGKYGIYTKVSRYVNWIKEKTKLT

inhibition [1]: inactive
inhibition (active/not active) [2]: inactive
inhibition [3]: inactive
inhibition [4]: inactive
Activity [5]: Not Active
Ratio [7]: 478 U
Ratio [8]: 14.1 U
inhibition [9]: Active
inhibition [10]: inactive
inhibition [12]: inactive
Ratio [13]: 151 U
inhibition [15]: Active
inhibition [16]: inactive
inhibition [17]: inactive
Ratio [18]: 4.46 U
Activity [20]: Not Active
inhibition [21]: inactive
inhibition [22]: inactive
inhibition [26]: inactive
SMILES: CC(=O)N[C@H]1[C@H](O[C@@H]([C@H](O[C@@H]2O[C@@H](C)[C@@H](OS(=O)(=O)[O-])[C@@H](OS(=O)(=O)O)[C@@H]2O)[C@@H](O)CO)[C@H](O)C(=O)[O-])O[C@H](COS(=O)(=O)[O-])[C@H](OS(=O)(=O)[O-])[C@@H]1O[C@@H]1O[C@H](C(=O)[O-])[C@@H](O[C@@H]2O[C@H](COS(=O)(=O)[O-])[C@H](OS(=O)(=O)[O-])[C@H](O[C@@H]3O[C@H](C(=O)[O-])[C@@H](O[C@@H]4O[C@H](COS(=O)(=O)[O-])[C@H](OS(=O)(=O)[O-])[C@H](O[C@@H]5O[C@H](C(=O)[O-])[C@@H](O[C@@H]6O[C@H](COS(=O)(=O)[O-])[C@H](OS(=O)(=O)[O-])[C@H](O[C@@H]7O[C@H](C(=O)[O-])[C@@H](O[C@@H]8O[C@H](COS(=O)(=O)[O-])[C@H](OS(=O)(=O)[O-])[C@H](O[C@@H]9O[C@H](C(=O)[O-])[C@@H](O[C@@H]%10O[C@H](COS(=O)(=O)[O-])[C@H](OS(=O)(=O)[O-])[C@H](O[C@@H]%11O[C@H](C(=O)[O-])[C@@H](O[C@@H]%12O[C@H](COS(=O)(=O)[O-])[C@H](OS(=O)(=O)[O-])[C@H](O[C@@H]%13O[C@H](C(=O)[O-])[C@@H](O[C@@H]%14O[C@H](COS(=O)(=O)[O-])[C@H](OS(=O)(=O)[O-])[C@H](O[C@@H]%15O[C@H](C(=O)[O-])[C@@H](O[C@@H]%16O[C@H](COS(=O)(=O)[O-])[C@H](OS(=O)(=O)[O-])[C@H](O[C@@H]%17OC(C(=O)O)=C[C@H](O[C@@H]%18O[C@@H](C)[C@@H](OS(=O)(=O)[O-])[C@@H](OS(=O)(=O)O)[C@@H]%18O)[C@H]%17O)[C@H]%16NC(C)=O)[C@H](O[C@@H]%16O[C@@H](C)[C@@H](OS(=O)(=O)[O-])[C@@H](OS(=O)(=O)O)[C@@H]%16O)[C@H]%15O)[C@H]%14NC(C)=O)[C@H](O[C@@H]%14O[C@@H](C)[C@@H](OS(=O)(=O)[O-])[C@@H](OS(=O)(=O)O)[C@@H]%14O)[C@H]%13O)[C@H]%12NC(C)=O)[C@H](O[C@@H]%12O[C@@H](C)[C@@H](OS(=O)(=O)[O-])[C@@H](OS(=O)(=O)O)[C@@H]%12O)[C@H]%11O)[C@H]%10NC(C)=O)[C@H](O[C@@H]%10O[C@@H](C)[C@@H](OS(=O)(=O)[O-])[C@@H](OS(=O)(=O)O)[C@@H]%10O)[C@H]9O)[C@H]8NC(C)=O)[C@H](O[C@@H]8O[C@@H](C)[C@@H](OS(=O)(=O)[O-])[C@@H](OS(=O)(=O)O)[C@@H]8O)[C@H]7O)[C@H]6NC(C)=O)[C@H](O[C@@H]6O[C@@H](C)[C@@H](OS(=O)(=O)[O-])[C@@H](OS(=O)(=O)O)[C@@H]6O)[C@H]5O)[C@H]4NC(C)=O)[C@H](O[C@@H]4O[C@@H](C)[C@@H](OS(=O)(=O)[O-])[C@@H](OS(=O)(=O)O)[C@@H]4O)[C@H]3O)[C@H]2NC(C)=O)[C@H](O[C@@H]2O[C@@H](C)[C@@H](OS(=O)(=O)[O-])[C@@H](OS(=O)(=O)O)[C@@H]2O)[C@H]1O.[Na+].[Na+].[Na+].[Na+].[Na+].[Na+].[Na+].[Na+].[Na+].[Na+].[Na+].[Na+].[Na+].[Na+].[Na+].[Na+].[Na+].[Na+].[Na+].[Na+].[Na+].[Na+].[Na+].[Na+].[Na+].[Na+].[Na+].[Na+].[Na+].[Na+].[Na+].[Na+].[Na+].[Na+].[Na+].[Na+].[Na+]
Activity [6]: Active
Ratio [11]: 426.19 U
Activity [14]: Active
Ratio [19]: 12.57 U
Ratio [23]: 7 U
Ratio [24]: 233.18 U
inhibition in vivo at 1.52 mg/kg [25]: 36.4%
